Patent US11213590B2, “SSTR-targeted conjugates and particles and formulations thereof” (priority 2016, dated 2022)
pIC50: −log10 of the molar value.

Tests used:
SSTR2 = SSTR2 (Homo sapiens, UniProt P30874); assay: Affinity profile (half-maximal inhibitory concentration), SSTR2; type: binding
From the text: (§1) DOTATE, also known as DOTA-TATE or DOTA-octreotate, comprises an amide of the acid DOTA, which connects a radionuclide and (Tyr3)-octreotate, a derivative of octreotide. DOTATOC, also known as edotreotide, SMT487, or (DOTA^0-Phe^1-Tyr^3)octreotide, is also an octreotide derivative which can be bound to radionuclides for diagnosis and treatment.

SSTR4 = SSTR4 (Homo sapiens, UniProt P31391); assay: Affinity profile (half-maximal inhibitory concentration), SSTR4; type: binding
Chain of SSTR4 (P31391 whole entry): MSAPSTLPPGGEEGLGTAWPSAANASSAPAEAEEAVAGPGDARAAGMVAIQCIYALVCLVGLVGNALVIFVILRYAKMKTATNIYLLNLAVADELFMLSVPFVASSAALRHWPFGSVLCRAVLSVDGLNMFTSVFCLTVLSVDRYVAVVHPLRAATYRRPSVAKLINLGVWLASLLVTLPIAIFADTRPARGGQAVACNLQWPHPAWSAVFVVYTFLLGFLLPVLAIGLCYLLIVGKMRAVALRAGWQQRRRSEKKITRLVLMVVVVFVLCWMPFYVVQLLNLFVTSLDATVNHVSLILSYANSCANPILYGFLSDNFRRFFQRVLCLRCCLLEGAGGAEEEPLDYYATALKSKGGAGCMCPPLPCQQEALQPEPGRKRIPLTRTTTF
From the text: as §1

[1] = test system: HCC-33 (small cell lung cancer) xenograft; assay: HCC-33 xenograft efficacy; type: in vivo
Description: HCC-33 (small cell lung cancer) xenograft was chosen to study efficacy of Conjugate 57. In some groups, Conjugate 57 was given at 1.0 mg/kg, 0.5 mg/kg or 0.33 mg/kg every week for 30 days, a total of four doses for each animal. In some other groups, Conjugate 57 was also given at 0.5 mg/kg or 0.25 mg/kg twice a week for 30 days, a total of 8 total doses for each animal.

SSTR1 = SSTR1 (Homo sapiens, UniProt P30872); assay: Affinity profile (half-maximal inhibitory concentration), SSTR1; type: binding
Chain of SSTR1 (P30872 whole entry): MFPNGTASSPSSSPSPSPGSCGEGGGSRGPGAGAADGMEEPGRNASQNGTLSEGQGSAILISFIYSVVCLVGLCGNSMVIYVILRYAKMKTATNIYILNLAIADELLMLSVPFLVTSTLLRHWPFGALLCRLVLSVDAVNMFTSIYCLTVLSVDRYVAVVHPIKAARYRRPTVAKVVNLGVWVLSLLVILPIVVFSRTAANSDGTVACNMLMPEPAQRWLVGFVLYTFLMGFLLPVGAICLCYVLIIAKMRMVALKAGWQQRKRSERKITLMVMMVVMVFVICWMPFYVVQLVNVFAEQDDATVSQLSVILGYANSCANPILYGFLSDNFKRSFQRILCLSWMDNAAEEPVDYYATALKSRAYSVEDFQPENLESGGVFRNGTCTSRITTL
From the text: as §1

[2] = target: human Ether-á-go-go-Related Gene (hERG) ion channel (Homo sapiens, UniProt Q12809); assay: hERG ion channel inhibition, IonWorks Quattro patch clamp; type: cell-based; conditions: IonWorks Quattro; up to 10 μM
Chain of human Ether-á-go-go-Related Gene (hERG) ion channel (Q12809 whole entry): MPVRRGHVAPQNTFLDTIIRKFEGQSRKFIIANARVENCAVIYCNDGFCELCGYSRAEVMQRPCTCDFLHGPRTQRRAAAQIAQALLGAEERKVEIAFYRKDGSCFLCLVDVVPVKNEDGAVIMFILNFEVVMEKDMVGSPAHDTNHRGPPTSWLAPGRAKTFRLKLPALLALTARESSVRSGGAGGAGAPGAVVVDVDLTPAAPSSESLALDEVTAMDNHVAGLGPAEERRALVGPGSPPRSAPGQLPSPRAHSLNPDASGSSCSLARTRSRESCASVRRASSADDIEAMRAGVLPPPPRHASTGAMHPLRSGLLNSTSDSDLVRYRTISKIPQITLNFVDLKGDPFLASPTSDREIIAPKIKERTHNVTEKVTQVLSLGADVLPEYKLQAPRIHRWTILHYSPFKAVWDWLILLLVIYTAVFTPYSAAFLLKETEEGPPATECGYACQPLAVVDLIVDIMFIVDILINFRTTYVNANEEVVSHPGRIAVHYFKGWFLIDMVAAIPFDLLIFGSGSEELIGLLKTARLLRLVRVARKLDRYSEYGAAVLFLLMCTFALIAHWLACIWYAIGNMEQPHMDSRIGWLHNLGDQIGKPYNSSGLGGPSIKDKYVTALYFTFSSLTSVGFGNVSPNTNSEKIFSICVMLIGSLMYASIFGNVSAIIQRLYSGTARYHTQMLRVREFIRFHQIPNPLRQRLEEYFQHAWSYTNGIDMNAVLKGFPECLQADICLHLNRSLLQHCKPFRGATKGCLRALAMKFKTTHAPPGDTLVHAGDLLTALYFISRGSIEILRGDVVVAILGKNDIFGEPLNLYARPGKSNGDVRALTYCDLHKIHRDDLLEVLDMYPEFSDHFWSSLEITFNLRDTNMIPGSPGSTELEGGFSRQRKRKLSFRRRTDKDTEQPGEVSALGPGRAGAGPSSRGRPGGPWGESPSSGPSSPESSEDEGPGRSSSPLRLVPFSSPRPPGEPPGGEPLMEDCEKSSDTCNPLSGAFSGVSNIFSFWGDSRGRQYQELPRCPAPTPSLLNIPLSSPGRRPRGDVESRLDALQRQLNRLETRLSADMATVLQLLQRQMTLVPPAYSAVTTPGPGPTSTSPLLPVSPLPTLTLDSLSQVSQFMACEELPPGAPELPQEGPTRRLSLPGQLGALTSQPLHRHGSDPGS
Description: (§2) The purpose of this study was to evaluate the potential of Conjugate 57 to prolong the QT interval via modulation of the ion channel, human Ether-á-go-go Related Gene (hERG). The potential inhibition of the ion channel activity by Conjugate 57 was tested using an IonWorks Quattro electrophysiological platform, which is an automated high-throughput patch clamp system. Conjugate 57 was tested at eight different concentrations, starting at a high concentration of 10 μM and a low concentration of 0.005 μM with a minimum of five replicates for each concentration. hERG currents were evoked by a three pulse protocol where voltage was first stepped to +40 mV for two seconds from a holding potential of −80 mV to inactivate hERG channels. The voltage is then stepped back to −50 mV for two seconds to evoke a tail current prior to returning to the holding potential for 1 second. The voltage protocol was applied (Pre), compounds added, incubated for 600 seconds, and the voltage protocol was applied a final time (Post) on the IonWorks Quattro.

hERG = hERG (Homo sapiens, UniProt Q12809); assay: as above; type: cell-based; conditions: human; all concentrations tested (0.005 μM to 10 μM); 600 seconds incubation
Chain of hERG (Q12809 whole entry): as above
Description: as §2

[3] = Excipient solubility and compatibility testing; type: physicochemical
Description: Conjugate 57 is an amphiphilic molecule and therefore tends to self-assemble into large structures. […] Commonly used parenteral surfactant excipients such as Polysorbate 80 (Tween 80) and Polyoxyl 15 Hydroxystearate (solutol, Kolliphor HS 15) were evaluated to re-assemble and stabilize Conjugate 57 into organized micelles. Conjugate 57 is compatible with non-ionic surfactants such as Tween 80 and solutol.

[4] = Conversion of impurities back into Conjugate 57 in acetate buffer; type: physicochemical
Description: Two impurities present in Conjugate 57 with RRT at 1.69 and 1.70, referred to herein as Impurity A and B respectively, were identified as Conjugate 57 adducts. […] The rate of conversion of these two compounds back into Conjugate 57 is dependent on temperature. Data are provided in Table 11A and Table 11B showing this conversion at room temperature and 40° C.

NCI-H69 xenograft = assay: NCI-H69 lung xenograft efficacy, formulations and schedules; type: in vivo, mice; conditions: for MTV (Mean Tumor Volume): total dose 2.0 mg/kg; for MTV (Mean Tumor Volume) / mice with complete tumor regression: Day 21
Description: A further NCI-H69 study design included Conjugate 57 dosed iv at 1.0 mg/kg formulated in propylene glycol (PG), 1.0 mg/kg formulated in Solutol HS15, 0.5 mg/kg formulated in Solutol HS15 dosed twice per week, and 0.33 mg/kg formulated in Solutol HS15 dosed three times per week. A comparator group was dosed with SOC cisplatin dosed iv at 5.0 mg/kg once per week/etoposide dosed ip at 8.0 mg/kg three times per week over two weeks. A negative control vehicle was dosed with the Solutol HS 15 vehicle. All groups contained 10 animals.

Chain of SSTR2 (P30874 whole entry): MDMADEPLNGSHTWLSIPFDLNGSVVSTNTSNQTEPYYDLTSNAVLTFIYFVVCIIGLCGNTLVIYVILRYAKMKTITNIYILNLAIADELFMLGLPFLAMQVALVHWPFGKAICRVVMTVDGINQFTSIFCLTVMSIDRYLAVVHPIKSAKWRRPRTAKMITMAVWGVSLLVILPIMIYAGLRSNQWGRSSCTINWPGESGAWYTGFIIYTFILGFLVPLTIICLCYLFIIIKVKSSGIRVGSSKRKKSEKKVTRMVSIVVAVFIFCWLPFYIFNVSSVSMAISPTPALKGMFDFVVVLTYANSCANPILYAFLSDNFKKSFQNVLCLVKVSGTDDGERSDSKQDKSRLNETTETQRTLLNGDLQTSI

COc1cc2cc(c1Cl)N(C)C(=O)C[C@H](OC(=O)[C@H](C)N(C)C(=O)CCSSC[C@H](NC(=O)[C@@H]1CSSC[C@H](NC(=O)[C@H](N)Cc3ccccc3)C(=O)N[C@@H](Cc3ccc(O)cc3)C(=O)N[C@H](Cc3c[nH]c4ccccc34)C(=O)N[C@@H](CCCCN)C(=O)N[C@@H]([C@@H](C)O)C(=O)N1)C(N)=O)[C@]1(C)O[C@H]1[C@H](C)[C@@H]1C[C@@](O)(NC(=O)O1)[C@H](OC)/C=C/C=C(\C)C2 [Conjugate 57]
pIC50 (SSTR2): 10.38 | pIC50 (SSTR4): < 6.00 | TGI % ([1]; 0.25 mg/kg 2x/wk (8 doses), Day 4): −12.5% | TGI % ([1]; 0.25 mg/kg 2x/wk (8 doses), Day 8): 50.4% | TGI % ([1]; 0.25 mg/kg 2x/wk (8 doses), Day 11): 67.3% | TGI % ([1]; 0.25 mg/kg 2x/wk (8 doses), Day 15): 85.8% | TGI % ([1]; 0.25 mg/kg 2x/wk (8 doses), Day 18): 92.3% | TGI % ([1]; 0.25 mg/kg 2x/wk (8 doses), Day 22): 95.8% | TGI % ([1]; 0.25 mg/kg 2x/wk (8 doses), Day 25): 97.2% | TGI % ([1]; 0.25 mg/kg 2x/wk (8 doses), Day 29): 97.8% | TGI % ([1]; 0.33 mg/kg every week (4 doses), Day 4): 2.1% | TGI % ([1]; 0.33 mg/kg every week (4 doses), Day 8): 34.2% | TGI % ([1]; 0.33 mg/kg every week (4 doses), Day 11): 48% | TGI % ([1]; 0.33 mg/kg every week (4 doses), Day 15): 62.4% | TGI % ([1]; 0.33 mg/kg every week (4 doses), Day 18): 73.8% | TGI % ([1]; 0.33 mg/kg every week (4 doses), Day 22): 79% | TGI % ([1]; 0.33 mg/kg every week (4 doses), Day 25): 83.4% | TGI % ([1]; 0.33 mg/kg every week (4 doses), Day 29): 78.5% | TGI % ([1]; 0.5 mg/kg 2x/wk (8 doses), Day 4): 0.5% | TGI % ([1]; 0.5 mg/kg 2x/wk (8 doses), Day 8): 61.6% | TGI % ([1]; 0.5 mg/kg 2x/wk (8 doses), Day 11): 78.3% | TGI % ([1]; 0.5 mg/kg 2x/wk (8 doses), Day 15): 91.8% | TGI % ([1]; 0.5 mg/kg 2x/wk (8 doses), Day 18): 96.2% | TGI % ([1]; 0.5 mg/kg 2x/wk (8 doses), Day 22): 97.6% | TGI % ([1]; 0.5 mg/kg 2x/wk (8 doses), Day 25): 99.1% | TGI % ([1]; 0.5 mg/kg 2x/wk (8 doses), Day 29): 99.2% | TGI % ([1]; 0.5 mg/kg every week (4 doses), Day 4): 1.6% | TGI % ([1]; 0.5 mg/kg every week (4 doses), Day 8): 60.3% | TGI % ([1]; 0.5 mg/kg every week (4 doses), Day 11): 68.8% | TGI % ([1]; 0.5 mg/kg every week (4 doses), Day 15): 82.7% | TGI % ([1]; 0.5 mg/kg every week (4 doses), Day 18): 87.1% | TGI % ([1]; 0.5 mg/kg every week (4 doses), Day 22): 91.1% | TGI % ([1]; 0.5 mg/kg every week (4 doses), Day 25): 93.6% | TGI % ([1]; 0.5 mg/kg every week (4 doses), Day 29): 89.5% | TGI % ([1]; 1.0 mg/kg every week (4 doses), Day 4): 25.8% | TGI % ([1]; 1.0 mg/kg every week (4 doses), Day 8): 69.9% | TGI % ([1]; 1.0 mg/kg every week (4 doses), Day 11): 84.4% | TGI % ([1]; 1.0 mg/kg every week (4 doses), Day 15): 93.6% | TGI % ([1]; 1.0 mg/kg every week (4 doses), Day 18): 97.4% | TGI % ([1]; 1.0 mg/kg every week (4 doses), Day 22): 99.2% | TGI % ([1]; 1.0 mg/kg every week (4 doses), Day 25): 99.8% | TGI % ([1]; 1.0 mg/kg every week (4 doses), Day 29): 99.7% | Body weights ([1]; HCC-33 xenograft, all groups): good | tolerability of multiple doses ([1]; HCC-33 xenograft, weekly or twice weekly dosing for 30 days): well tolerated | pIC50 (SSTR1): 6.42 | hERG ion channel inhibition (in words) [2]: did not inhibit | inhibition at 600 seconds (hERG): < 20% | solubility ([3]; in saline): < 1000 µg/mL | excipient compatibility ([3]; non-ionic surfactants such as Tween 80 and solutol): compatible | excipient compatibility ([3]; tocophersolan (TPGS), super refined PEG 300, PEG 400, ethanol, dextrose, or Pluronics F68): not compatible | Total (sum of Conjugate 57 and impurities A and B) ([4]; 40° C., 0 hr): 98.6% | content during conversion of impurities ([4]; 40° C., 0 hr): 94.6% | Total (sum of Conjugate 57 and impurities A and B) ([4]; 40° C., 1.4 hr): 98.7% | content during conversion of impurities ([4]; 40° C., 1.4 hr): 97.9% | Total (sum of Conjugate 57 and impurities A and B) ([4]; 40° C., 8.4 hr): 98.8% | content during conversion of impurities ([4]; 40° C., 8.4 hr): 98.5% | Total (sum of Conjugate 57 and impurities A and B) ([4]; room temperature, 0 hr): 98.6% | content during conversion of impurities ([4]; room temperature, 0 hr): 94.6% | Total (sum of Conjugate 57 and impurities A and B) ([4]; room temperature, 9.0 hr): 98.7% | content during conversion of impurities ([4]; room temperature, 9.0 hr): 97.8% | Total (sum of Conjugate 57 and impurities A and B) ([4]; room temperature, 11.6 hr): 98.8% | content during conversion of impurities ([4]; room temperature, 11.6 hr): 98.1% | Total (sum of Conjugate 57 and impurities A and B) ([4]; room temperature, 14.8 hr): 98.8% | content during conversion of impurities ([4]; room temperature, 14.8 hr): 98.3% | Total (sum of Conjugate 57 and impurities A and B) ([4]; room temperature, 16.7 hr): 98.8% | content during conversion of impurities ([4]; room temperature, 16.7 hr): 98.3% | MTV (Mean Tumor Volume) (NCI-H69 xenograft; 0.33 mg/kg iv in Solutol HS15, 3 doses per week): 330 mm3 | mice with complete tumor regression (NCI-H69 xenograft; 0.33 mg/kg three times per week in Solutol HS15): no mice having complete tumor regressions | MTV (Mean Tumor Volume) (NCI-H69 xenograft; 0.5 mg/kg iv in Solutol HS15, 2 doses per week): 105 mm3 | mice with complete tumor regression (NCI-H69 xenograft; 0.5 mg/kg twice weekly in Solutol HS15, 10 animals): 1/10 | mice with complete tumor regression (NCI-H69 xenograft; 1.0 mg/kg in PG, 10 animals): 2/10 | mice with complete tumor regression (NCI-H69 xenograft; 1.0 mg/kg in Solutol HS15, 10 animals): 3/10 | MTV (Mean Tumor Volume) (NCI-H69 xenograft; 1.0 mg/kg iv in PG, 1 dose per week): 178 mm3 | MTV (Mean Tumor Volume) (NCI-H69 xenograft; 1.0 mg/kg iv in Solutol HS15, 1 dose per week): 55 mm3 | adverse effects with health observations (NCI-H69 xenograft; NCI-H69 xenograft): No adverse effects | weight loss (NCI-H69 xenograft; NCI-H69 xenograft, all Conjugate 57 groups): No weight loss
